Two molecules from article PMC9683698 (Science Advances, 2022) can be followed below.

The target in assay [1] is T1, cPLA2 (cPLA2 group IVA, PLA2G4A) (Homo sapiens, UniProt P47712).
T1 construct: recombinant, expressed and purified from insect cells
T1 sequence (P47712 1-749): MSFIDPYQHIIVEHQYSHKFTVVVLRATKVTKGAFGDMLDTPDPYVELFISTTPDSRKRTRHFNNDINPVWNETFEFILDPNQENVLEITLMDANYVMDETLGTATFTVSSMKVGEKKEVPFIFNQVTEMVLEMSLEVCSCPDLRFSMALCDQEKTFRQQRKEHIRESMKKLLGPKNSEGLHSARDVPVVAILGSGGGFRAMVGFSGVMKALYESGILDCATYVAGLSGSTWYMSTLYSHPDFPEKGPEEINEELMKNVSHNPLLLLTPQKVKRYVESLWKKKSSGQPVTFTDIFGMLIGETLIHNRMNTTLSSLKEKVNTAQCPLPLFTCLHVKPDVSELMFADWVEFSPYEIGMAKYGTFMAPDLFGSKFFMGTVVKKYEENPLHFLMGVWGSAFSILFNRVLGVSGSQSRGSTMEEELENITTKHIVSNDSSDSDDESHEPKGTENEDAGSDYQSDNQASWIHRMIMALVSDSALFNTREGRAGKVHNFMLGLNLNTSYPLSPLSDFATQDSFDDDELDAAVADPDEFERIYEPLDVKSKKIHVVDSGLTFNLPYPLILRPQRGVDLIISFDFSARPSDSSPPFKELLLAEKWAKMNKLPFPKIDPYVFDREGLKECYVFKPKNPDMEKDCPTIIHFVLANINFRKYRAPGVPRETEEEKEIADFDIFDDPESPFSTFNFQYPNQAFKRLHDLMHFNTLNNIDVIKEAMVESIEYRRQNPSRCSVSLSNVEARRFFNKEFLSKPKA
In words: biochemical.

The target of assay [2] is SARS-CoV S ectodomain (SARS-CoV) (UniProt P59594). In words: […], SEC buffer 20 mM tris pH 7.5, 100 mM NaCl; […].

What is called IC50 is the midpoint of a concentration-inhibition curve. Read a low IC50 as greater potency. One may read the stoichiometry N as a count of units in the complex or per binding partner.

As to `CCCCC/C=C\C/C=C\CCCCCCCC(=O)O` [linoleic acid], the IC50 in assay [1] was ~100 µM. Consider “SARS-CoV S ectodomain (from UniProt P59594 14-1193) (domain or fragment)”, for which the stoichiometry N in assay [2] amounted to 3.
